Patent US10004701B2, “Methods and compositions for treating infection” (UNIVERSITY OF ROCHESTER, priority 2012, dated 2018)
Structures can show the parent of a compound that is named as a salt. Where two headings read alike, the source gives them in different places.

Tests used:
Assay in all cases: AK assay 384-well format, Prestwick library screening
K. pneumoniae = assay type: cell-based, Klebsiella pneumoniae; settings: 50 μM final drug concentration; for fold induction at 50 µM: Klebsiella pneumoniae, 3 h
E. coli = assay type: cell-based, Escherichia coli; settings: 50 μM final drug concentration; for fold induction at 50 µM: Escherichia coli, 3 h
E. faecium = assay type: cell-based, Enterococcus faecium; settings: 50 μM final drug concentration; for fold induction at 50 µM: Enterococcus faecium, 3 h
[1] = system: S. aureus strain USA300-0114; assay type: cell-based, Staphylococcus aureus; settings: 50 μM final drug concentration; for fold induction at 50 µM: Staphylococcus aureus, USA300, 3 h
P. aeruginosa = assay type: cell-based, Pseudomonas aeruginosa; settings: 50 μM final drug concentration; for fold induction at 50 µM: Pseudomonas aeruginosa, 3 h
[2] = system: A. baumannii strain 98-37-09; assay type: cell-based, Acinetobacter baumannii; settings: 50 μM final drug concentration; for fold induction at 50 µM: Acinetobacter baumannii, 983709, 3 h
E. cloacae = assay type: cell-based, Enterobacter cloacae; settings: 50 μM final drug concentration; for fold induction at 50 µM: Enterobacter cloacae, 3 h
[3] = planktonic K. pneumoniae, 384-well, cutoff for positive-scoring molecules 3-fold increase, read-out: AK-based Prestwick Library Screening Results: K. pneumoniae (increase in extracellular AK activity)
[4] = planktonic E. coli, 384-well, cutoff for positive-scoring molecules 3-fold increase, read-out: AK-based Prestwick Library Screening Results: E. coli (increase in extracellular AK activity)
[5] = planktonic E. faecium, 384-well, cutoff for positive-scoring molecules 3-fold increase, read-out: AK-based Prestwick Library Screening Results: E. faecium (increase in extracellular AK activity)
[6] = planktonic S. aureus, 384-well, cutoff for positive-scoring molecules 3-fold increase, read-out: AK-based Prestwick Library Screening Results: S. aureus (increase in extracellular AK activity)
[7] = planktonic P. aeruginosa, 384-well, cutoff for positive-scoring molecules 3-fold increase, read-out: AK-based Prestwick Library Screening Results: P. aeruginosa (increase in extracellular AK activity)
[8] = planktonic A. baumannii, 384-well, cutoff for positive-scoring molecules 3-fold increase, read-out: AK-based Prestwick Library Screening Results: A. baumannii (increase in extracellular AK activity)
[9] = planktonic E. cloacae, 384-well, cutoff for positive-scoring molecules 3-fold increase, read-out: AK-based Prestwick Library Screening Results: E. cloacae (increase in extracellular AK activity)
[10] = planktonic, cutoff for positive 3-fold increase, read-out: AK-based Prestwick Library Screening Results, K. pneumoniae (fold increase in extracellular AK activity)
[11] = planktonic, cutoff for positive 3-fold increase, read-out: AK-based Prestwick Library Screening Results, E. coli (fold increase in extracellular AK activity)
[12] = planktonic, cutoff for positive 3-fold increase, read-out: AK-based Prestwick Library Screening Results, E. faecium (fold increase in extracellular AK activity)
[13] = planktonic, cutoff for positive 3-fold increase, read-out: AK-based Prestwick Library Screening Results, S. aureus (fold increase in extracellular AK activity)
[14] = planktonic, cutoff for positive 3-fold increase, read-out: AK-based Prestwick Library Screening Results, P. aeruginosa (fold increase in extracellular AK activity)
[15] = planktonic, cutoff for positive 3-fold increase, read-out: AK-based Prestwick Library Screening Results, A. baumannii (fold increase in extracellular AK activity)
[16] = planktonic, cutoff for positive 3-fold increase, read-out: AK-based Prestwick Library Screening Results, E. cloacae (fold increase in extracellular AK activity)
[17] = cutoff for positive-scoring molecules 3-fold increase, read-out: AK-based Prestwick Library Screening Results, K. pneumoniae (fold increase in extracellular AK activity)
[18] = cutoff for positive-scoring molecules 3-fold increase, read-out: AK-based Prestwick Library Screening Results, E. coli (fold increase in extracellular AK activity)
[19] = cutoff for positive-scoring molecules 3-fold increase, read-out: AK-based Prestwick Library Screening Results, E. faecium (fold increase in extracellular AK activity)
[20] = cutoff for positive-scoring molecules 3-fold increase, read-out: AK-based Prestwick Library Screening Results, S. aureus (fold increase in extracellular AK activity)
[21] = cutoff for positive-scoring molecules 3-fold increase, read-out: AK-based Prestwick Library Screening Results, P. aeruginosa (fold increase in extracellular AK activity)
[22] = cutoff for positive-scoring molecules 3-fold increase, read-out: AK-based Prestwick Library Screening Results, A. baumannii (fold increase in extracellular AK activity)
[23] = cutoff for positive-scoring molecules 3-fold increase, read-out: AK-based Prestwick Library Screening Results, E. cloacae (fold increase in extracellular AK activity)

`CC[C@H](C)[C@H]1O[C@]2(CC[C@@H]1C)C[C@@H]1C[C@@H](C/C=C(\C)[C@@H](O[C@H]3C[C@H](OC)[C@@H](O[C@H]4C[C@H](OC)[C@@H](O)[C@H](C)O4)[C@H](C)O3)[C@@H](C)/C=C/C=C3\CO[C@@H]4[C@H](O)C(C)=C[C@@H](C(=O)O1)[C@]34O)O2` [Ivermectin] was tested, and the “AK-based Prestwick Library Screening Results: K. pneumoniae (increase in extracellular AK activity)” value (K. pneumoniae; planktonic K. pneumoniae, 384-well, […]) was 1.0, the “AK-based Prestwick Library Screening Results: E. coli (increase in extracellular AK activity)” value (E. coli; planktonic E. coli, 384-well, […]) was 1.3 and the “AK-based Prestwick Library Screening Results: E. faecium (increase in extracellular AK activity)” value (E. faecium; planktonic E. faecium, 384-well, […]) was 1.2. The “AK-based Prestwick Library Screening Results: S. aureus (increase in extracellular AK activity)” value ([1]; planktonic S. aureus, 384-well, […]) was 2.1, the “AK-based Prestwick Library Screening Results: P. aeruginosa (increase in extracellular AK activity)” value (P. aeruginosa; planktonic P. aeruginosa, 384-well, […]) was 1.0 and the “AK-based Prestwick Library Screening Results: A. baumannii (increase in extracellular AK activity)” value ([2]; planktonic A. baumannii, 384-well, […]) was 1.5. The “AK-based Prestwick Library Screening Results: E. cloacae (increase in extracellular AK activity)” value (E. cloacae; planktonic E. cloacae, 384-well, […]) was 1.6.

`Nc1c2c(nc3ccccc13)CCCC2` [Tacrine hydrochloride hydrate] was tested, and the fold induction at 50 µM (K. pneumoniae; [3]) was 0.4, the fold induction at 50 µM (E. coli; [4]) was 0.5 and the fold induction at 50 µM (E. faecium; [5]) was 0.9. It also gave a fold induction at 50 µM [1, 6] of 0.5, a fold induction at 50 µM (P. aeruginosa; [7]) of 0.5 and a fold induction at 50 µM [2, 8] of 0.5. It also gave a fold induction at 50 µM (E. cloacae; [9]) of 0.4.

For `CCOC(=O)C1=C(C)NC(C)=C(C(=O)OC)C1c1cccc(Cl)c1Cl` (stereo not drawn) [Felodipine], the fold induction at 50 µM (K. pneumoniae; [10]) was 1, the fold induction at 50 µM (E. coli; [11]) was 1.2 and the fold induction at 50 µM (E. faecium; [12]) was 1.3. It also gave a fold induction at 50 µM [1, 13] of 2.5, a fold induction at 50 µM (P. aeruginosa; [14]) of 1 and a fold induction at 50 µM [2, 15] of 3. It also gave a fold induction at 50 µM (E. cloacae; [16]) of 1.7.

For `C1CCC(C(CC2CCCCN2)C2CCCCC2)CC1` (stereo not drawn) [Perhexiline maleate], the fold induction at 50 µM (K. pneumoniae; planktonic K. pneumoniae, 384-well, […], read-out: AK-based Prestwick Library Screening Results: K. pneumoniae (increase in extracellular AK activity)) was 1.6, the fold induction at 50 µM (E. coli; planktonic E. coli, 384-well, […], read-out: AK-based Prestwick Library Screening Results: E. coli (increase in extracellular AK activity)) was 1.8 and the fold induction at 50 µM (E. faecium; planktonic E. faecium, 384-well, […], read-out: AK-based Prestwick Library Screening Results: E. faecium (increase in extracellular AK activity)) was 1.2. It also gave a fold induction at 50 µM ([1]; planktonic S. aureus, 384-well, […], read-out: AK-based Prestwick Library Screening Results: S. aureus (increase in extracellular AK activity)) of 0.8, a fold induction at 50 µM (P. aeruginosa; planktonic P. aeruginosa, 384-well, […], read-out: AK-based Prestwick Library Screening Results: P. aeruginosa (increase in extracellular AK activity)) of 1.4 and a fold induction at 50 µM ([2]; planktonic A. baumannii, 384-well, […], read-out: AK-based Prestwick Library Screening Results: A. baumannii (increase in extracellular AK activity)) of 3.4. The fold induction at 50 µM (E. cloacae; planktonic E. cloacae, 384-well, […], read-out: AK-based Prestwick Library Screening Results: E. cloacae (increase in extracellular AK activity)) was 1.5.

`CCN(CC)Cc1cc(Nc2ccnc3cc(Cl)ccc23)ccc1O` [Amodiaquin dihydrochloride dihydrate] showed a fold induction at 50 µM (K. pneumoniae; [3]) of 0.9, a fold induction at 50 µM (E. coli; [4]) of 1.2 and a fold induction at 50 µM (E. faecium; [5]) of 1.1. For the same compound, the fold induction at 50 µM [1, 6] was 1.3, the fold induction at 50 µM (P. aeruginosa; [7]) was 1.2 and the fold induction at 50 µM [2, 8] was 1.5. The fold induction at 50 µM (E. cloacae; [9]) was 1.4.

With `Cc1ncc(C[n+]2csc(CCO)c2C)c(N)n1` [Thiamine hydrochloride] the fold induction at 50 µM (K. pneumoniae; [10]) was 1.4, the fold induction at 50 µM (E. coli; [11]) was 1.4 and the fold induction at 50 µM (E. faecium; [12]) was 1. It also gave a fold induction at 50 µM [1, 13] of 1.1, a fold induction at 50 µM (P. aeruginosa; [14]) of 1.3 and a fold induction at 50 µM [2, 15] of 1.3. It also gave a fold induction at 50 µM (E. cloacae; [16]) of 1.3.

`CC(=O)Oc1ccccc1C(=O)Oc1ccccc1C(=O)O` [Acetylsalicylsalicylic acid] gave a fold induction at 50 µM (K. pneumoniae; 384-well format, cutoff for positive-scoring molecules 3-fold increase, read-out: AK-based Prestwick Library Screening Results, K. pneumoniae (increase in extracellular AK activity)) of 0.6, a fold induction at 50 µM (E. coli; 384-well format, cutoff for positive-scoring molecules 3-fold increase, read-out: AK-based Prestwick Library Screening Results, E. coli (increase in extracellular AK activity)) of 0.6 and a fold induction at 50 µM (E. faecium; 384-well format, cutoff for positive-scoring molecules 3-fold increase, read-out: AK-based Prestwick Library Screening Results, E. faecium (increase in extracellular AK activity)) of 1. The fold induction at 50 µM ([1]; 384-well format, cutoff for positive-scoring molecules 3-fold increase, read-out: AK-based Prestwick Library Screening Results, S. aureus (increase in extracellular AK activity)) was 0.7, the fold induction at 50 µM (P. aeruginosa; 384-well format, cutoff for positive-scoring molecules 3-fold increase, read-out: AK-based Prestwick Library Screening Results, P. aeruginosa (increase in extracellular AK activity)) was 0.6 and the fold induction at 50 µM ([2]; 384-well format, cutoff for positive-scoring molecules 3-fold increase, read-out: AK-based Prestwick Library Screening Results, A. baumannii (increase in extracellular AK activity)) was 0.7. The fold induction at 50 µM (E. cloacae; 384-well format, cutoff for positive-scoring molecules 3-fold increase, read-out: AK-based Prestwick Library Screening Results, E. cloacae (increase in extracellular AK activity)) was 0.8.

For `CCCCOc1ccc(OCCCN2CCOCC2)cc1` [Pramoxine hydrochloride], the fold induction at 50 µM (K. pneumoniae; [17]) was 1.1, the fold induction at 50 µM (E. coli; [18]) was 1.1 and the fold induction at 50 µM (E. faecium; [19]) was 1. It also gave a fold induction at 50 µM [1, 20] of 1.3, a fold induction at 50 µM (P. aeruginosa; [21]) of 1.2 and a fold induction at 50 µM [2, 22] of 1.1. It also gave a fold induction at 50 µM (E. cloacae; [23]) of 1.5.

`Nc1cc(C(Cl)=C(Cl)Cl)c(S(N)(=O)=O)cc1S(N)(=O)=O` [Clorsulon] gave a fold induction at 50 µM (K. pneumoniae; [10]) of 1, a fold induction at 50 µM (E. coli; [11]) of 1 and a fold induction at 50 µM (E. faecium; [12]) of 1.4. It also gave a fold induction at 50 µM [1, 13] of 1.5, a fold induction at 50 µM (P. aeruginosa; [14]) of 1.1 and a fold induction at 50 µM [2, 15] of 1. For the same compound, the fold induction at 50 µM (E. cloacae; [16]) was 1.7.

In the case of `CC(C)(Oc1ccc(CCNC(=O)c2ccc(Cl)cc2)cc1)C(=O)O` [Bezafibrate], the fold induction at 50 µM (K. pneumoniae; [10]) is reported as 0.7, the fold induction at 50 µM (E. coli; [11]) is reported as 0.9 and the fold induction at 50 µM (E. faecium; [12]) is reported as 0.8. It also gave a fold induction at 50 µM [1, 13] of 1.1, a fold induction at 50 µM (P. aeruginosa; [14]) of 1 and a fold induction at 50 µM [2, 15] of 0.8. It also gave a fold induction at 50 µM (E. cloacae; [16]) of 1.5.

`CCOC(=O)Nc1ccc2c(c1)N(C(=O)CCN1CCOCC1)c1ccccc1S2` [Moricizine hydrochloride] gave a fold induction at 50 µM (K. pneumoniae; [17]) of 0.6, a fold induction at 50 µM (E. coli; [18]) of 0.6 and a fold induction at 50 µM (E. faecium; [19]) of 1. For the same compound, the fold induction at 50 µM [1, 20] was 0.6, the fold induction at 50 µM (P. aeruginosa; [21]) was 0.6 and the fold induction at 50 µM [2, 22] was 0.6. For the same compound, the fold induction at 50 µM (E. cloacae; [23]) was 0.7.

`Cc1ccc(S(=O)(=O)NC(=O)NN2CC3CCCC3C2)cc1` (stereo not drawn) [Gliclazide] was tested, and the fold induction at 50 µM (K. pneumoniae; [10]) was 1.2, the fold induction at 50 µM (E. coli; [11]) was 1.2 and the fold induction at 50 µM (E. faecium; [12]) was 1. The fold induction at 50 µM [1, 13] was 1, the fold induction at 50 µM (P. aeruginosa; [14]) was 1.2 and the fold induction at 50 µM [2, 15] was 1.3. The fold induction at 50 µM (E. cloacae; [16]) was 1.8.
